Measurements from US6518302B1, “Remedies” (Takara Shuzo Co., Ltd., priority 1999, dated 2003).
Like-named read-outs stand apart in the source and are kept apart here.

Experiments:
[1] = Conversion into DGE in culture medium (thin-layer chromatography); format: in vitro ADME; conditions: 10 mM in RPMI 1640 medium with 10% calf serum, 37° C., 4 hours
Protocol: The compound (7) or the compound (9) synthesized in Example 1 was dissolved at a final concentration of 10 mM in RPMI 1640 medium supplemented with 10% calf serum. These samples were allowed to stand at 37° C. for 4 hours. […] each of the samples was then subjected to thin-layer chromatography using chloroform:methanol=5:1 as a developing solvent. Detection was carried out using orcinol-sulfuric acid.
For each sample, a spot with Rf value of 0.5, the same value as that for the compound of general formula IV in which Z is CH2OH and Y is H (L-glycero-1,5-epoxy-1αβ,6-dihydroxy-cis-hex-3-en-2-one, hereinafter referred to as DGE), was detected.

[2] = system: Human promyelocytic leukemia HL-60 cells; assay: Antiproliferation activity against HL-60 cells (MTT method); format: cell-based; conditions: 48 hour incubation
Protocol: Human promyelocytic leukemia HL-60 cells (ATCC CCL-240) were cultured at 37° C. in RPMI 1640 medium (Gibco) containing 10% of fetal calf serum (JRH Bioscience) which had been treated at 56° C. for 30 minutes, and suspended in the same medium at a concentration of 5000 cells/90 μl. Each 90 μl portion of the suspension was distributed into each well of a 96-well plate (Falcon). To the suspension in each well was added 10 μl of one the following samples, and incubated at 37° C. in the presence of 5% CO2. The samples were 2-, 4-, 8-, 16-, 32-, 64- or 128-dilutions of filter-sterilized 200 mM aqueous solution of the compound (2) obtained in Example 1, 50 mM aqueous solution of the compound (7), 50 mM aqueous solution of the compound (9), 100 mM aqueous solution of the compound (11), 100 mM aqueous solution of the compound (14), 20 mM aqueous solution of the compound (17), 12.5 mM aqueous solution of the compound (19) or 12.5 mM aqueous solution of the compound (21) with sterile water, as well as water. After 48 hour from the initiation of the incubation, the numbers of viable cells calculated based on the absorbance measured according to the MTT method as described in “Apoptosis Jikken Protocol” (Syuzyun-sha, Seiichi Tanuma, ed., pp. 156 (1994)) were compared each other.

[3] = system: HL-60 (ATCC CCL-240) cells; assay: Analysis of DNA fragmentation; format: cell-based, Human; conditions: HL-60 cells
Protocol: (§1) HL-60 (ATCC CCL-240) cells were cultured at 37° C. in RPMI 1640 medium (Bio Whittaker) containing 10% fetal calf serum (JRH) which had been treated at 56° C. for 30 minutes and suspended in RPMI 1640 medium at a concentration of 2.5×10^5 cells/4.5 ml. […] each of aqueous solutions of the compound (2) at a concentration of 10, 50 or 100 mM, the compound (7) at a concentration of 500, 1000 or 1500 μM, the compound (9) at a concentration of 750, 1500 or 3000 μM, the compound (11) at a concentration of 750, 1500 or 3000 μM, or the compound (14) at a concentration of 750, 1500 or 3000 μM was added to 4.5 ml of the suspension. The mixtures were incubated at 37° C. for 24 hours in the presence of 5% CO2. Measurement of apoptotic cells using FACScan as described in Saibo Kogaku, Bessatsu (Cell Technology, Suppl.) Jikken Protocol Series: Apoptosis Jikken Protocol (Experimental Protocol Series: Experimental Protocols for Apoptosis) (Shujun-sha) pp. 129-130 and analysis of DNA fragmentation as described in Bio Manual UP Series: […] Apoptosis Jikken-ho (Bio Manual UP Series: Current Experimental Methods for Apoptosis) (Yodo-sha) pp. 61-63 were carried out using cells cultured for 24 or 48 hours in the same manner as that described above.

[4] = system: HL-60 (ATCC CCL-240) cells; assay: Apoptosis morphology in HL-60 cells under optical microscope; format: cell-based, Human; conditions: 24 hours
Protocol: HL-60 (ATCC CCL-240) cells were cultured at 37° C. in RPMI 1640 medium (Bio Whittaker) containing 10% fetal calf serum (JRH) which had been treated at 56° C. for 30 minutes and suspended in RPMI 1640 medium at a concentration of 2.5×10^5 cells/4.5 ml. […] each of aqueous solutions of the compound (2) at a concentration of 10, 50 or 100 mM, the compound (7) at a concentration of 500, 1000 or 1500 μM, the compound (9) at a concentration of 750, 1500 or 3000 μM, the compound (11) at a concentration of 750, 1500 or 3000 μM, or the compound (14) at a concentration of 750, 1500 or 3000 μM was added to 4.5 ml of the suspension. The mixtures were incubated at 37° C. for 24 hours in the presence of 5% CO2. The cultured cells were examined under an optical microscope.

[5] = system: HL-60 (ATCC CCL-240) cells; assay: Viability of HL-60 cells by Trypan Blue staining; format: cell-based; conditions: Homo sapiens, read-out: Viability50, concentration that results in a viability of 50%
Protocol: HL-60 (ATCC CCL-240) cells were cultured at 37° C. in RPMI 1640 medium (Bio Whittaker) containing 10% fetal calf serum (JRH) which had been treated at 56° C. for 30 minutes and suspended in RPMI 1640 medium at a concentration of 2.5×10^5 cells/4.5 ml.
[…] each of aqueous solutions of the compound (2) at a concentration of 10, 50 or 100 mM, the compound (7) at a concentration of 500, 1000 or 1500 μM, the compound (9) at a concentration of 750, 1500 or 3000 μM, the compound (11) at a concentration of 750, 1500 or 3000 μM, or the compound (14) at a concentration of 750, 1500 or 3000 μM was added to 4.5 ml of the suspension. The mixtures were incubated at 37° C. for 24 hours in the presence of 5% CO2.
A portion of the cells cultured for 24 or 48 hours as described in Example 4 was stained with 0.4% Trypan Blue and examined under an optical microscope. The number of viable cells which were not stained and the number of dead cells which were stained blue were counted. The concentration of each of the compounds (2), (7), (9), (11) and (14) that results in a viability of 50% (Viability50 mM) was determined.

[6] = system: HL-60 (ATCC CCL-240) cells; assay: Measurement of apoptotic cells using FACScan; format: cell-based, Human; conditions: HL-60 cells, 24 hours
Protocol: as §1

O=C[C@H](O)[C@H]1OC[C@@H](O)[C@@H]1O [Compound (2), 3,6-anhydro-D-galactose, reference compound]
conversion into DGE (spot with Rf value of 0.5, the same value as DGE) [1]: conversion into DGE was also observed
antiproliferation activity against HL-60 cells [2]: exhibited antiproliferation activities
IC50 ([2]; Homo sapiens, HL-60 cells, read-out: IC50, concentration at which 50% of the proliferation is inhibited): 0.86 mM
final concentration at which DNA fragmentation was observed ([3]; 24 hours): ≥ 5 mM
final concentration at which DNA fragmentation was observed ([3]; 48 hours): ≥ 1 mM
final concentration at which condensation of nuclei, shrinking of cells and formation of apoptotic bodies were observed [4]: ≥ 5 mM
IC50 ([5]; 24 hours): 18.1 mM
IC50 ([5]; 48 hours): 3.4 mM
final concentration at which apoptotic cells were observed [6]: ≥ 5 mM
